Activity calls are given as the source filed them. The rule behind the calls is not given here.
Experiments:
[1] = Inhibition of alpha-glucosidase at 10.0 ug/ml
[2] = Inhibition of alpha-glucosidase at 5.0 ug/ml
[3] = Inhibition of alpha-glucosidase at 2.5 ug/ml
[4] = Inhibition of alpha-glucosidase at 1.25 ug/ml
[5] = Inhibition of alpha-glucosidase

With `COc1ccc([C@@H](CNC(=O)/C=C\c2ccccc2)O[C@@H]2O[C@H](CO)[C@@H](O)[C@H](O)[C@H]2O)cc1` the inhibition [1] was 8.8%, the inhibition [2] was 3.4% and the Activity [3] was “inactive”. For the same molecule, the Activity [4] was “inactive”.
Molecule `COc1ccc([C@H](O)CNC(=O)/C=C/c2ccccc2)cc1` has an inhibition [1] of 36%, an inhibition [2] of 20.9% and an inhibition [3] of 11.2%. For the same molecule, the inhibition [4] was 5.3%.
Molecule `COc1ccc([C@H](O)CNC(=O)c2ccccc2)cc1` has an inhibition [1] of 13.5%, an inhibition [2] of 11.4% and an inhibition [3] of 7.8%. It also gave an inhibition [4] of 1.5%.
For `COc1ccc([C@@H](CNC(=O)/C=C/c2ccccc2)OC)cc1`, the inhibition [1] was 12.6%, the Activity [2] was “inactive” and the Activity [3] was “inactive”. The Activity [4] was “inactive”.
With `CC(C)=CCOc1ccc(/C=C/NC(=O)/C=C/c2ccccc2)cc1` the inhibition [1] was 30.1%, the inhibition [2] was 13.2% and the inhibition [3] was 8.1%. It also gave an inhibition [4] of 1.3%.
In the case of `CC(C)=CCOc1ccc(CCNC(=O)/C=C/c2ccccc2)cc1`, the inhibition [1] is reported as 19.7%, the inhibition [2] is reported as 15.9% and the Activity [3] is reported as “inactive”. The Activity [4] was “inactive”.
`COc1ccc([C@@H](CNC(=O)/C=C/c2ccccc2)O[C@@H]2O[C@H](CO)[C@@H](O)[C@H](O)[C@H]2O)cc1` gave an inhibition [1] of 17.6%, an inhibition [2] of 11.6% and an inhibition [3] of 6.1%. The inhibition [4] was 4.6%.
`COc1ccc(/C=C/NC(=O)/C=C/c2ccccc2)cc1` [ANHYDROAEGELINE] showed an inhibition [1] of 56.5%, an inhibition [2] of 25.2% and an inhibition [3] of 7.5%. For the same molecule, the inhibition [4] was 1.7% and the IC50 [5] was 35.8 µM.

Source: ChEMBL document CHEMBL1144180, “Phenylethyl cinnamides: a new series of alpha-glucosidase inhibitors from the leaves of Aegle marmelos” (Bioorg Med Chem Lett, 2008)
